Results taken from US20020110815A1, “Novel genes, compositions and methods for the identification, assessment, prevention, and therapy of human cancers” (priority 2000, published 2002).
Each block holds one molecule with its values, some of them ahead of it.

Experiments:
[1] = system: TAXOL sensitive cancer cell lines; assay: TAXOL growth inhibition (GI50), mean of TAXOL sensitive cell lines; type: cell-based; settings: Homo sapiens; mean of the nine TAXOL sensitive cell lines of Table C; read-out: Log GI 50 for TAXOL (Mean) (converted)
Description: (§1) One group of nine cell lines was determined to be sensitive to TAXOL (Table C), the other group of nine cell lines was determined to be resistant to TAXOL (Table B). Sensitivity to TAXOL was based on known GI50 values for these cells, which for this study was defined as the concentration of TAXOL required to inhibit growth of the cell line by 50%. More precisely, the quantity used in the calculation is the potency measure −log {GI50}. Pooled RNA from TAXOL sensitive cancer cell lines was used as tester against driver RNA pooled from TAXOL resistant cancer cell lines. The results of this subtractive library are shown in SEQ ID NOS: 1-127, SEQ ID NOS: 398-517 and SEQ ID NOS: 746-841. Pooled RNA from TAXOL resistant cancer cell lines was used as tester against driver RNA pooled from TAXOL sensitive cancer cell lines. The results of this subtractive library are shown in SEQ ID NOS: 128-397, SEQ ID NOS: 518-745 and SEQ ID NOS: 842-1046.

[2] = system: SK-MEL-28; settings: SK-MEL-28, melanoma, TAXOL resistant cell line; cited from earlier work
[3] = system: HCT-15; settings: HCT-15, colon, TAXOL resistant cell line; cited from earlier work
[4] = system: MCF-7/AdrRes; settings: breast, TAXOL resistant cell line; cited from earlier work
[5] = system: SK-MEL-2; settings: SK-MEL-2, melanoma, TAXOL sensitive cell line; cited from earlier work
[6] = system: OVCAR-3; settings: OVCAR-3, ovarian, TAXOL sensitive cell line; cited from earlier work
[7] = system: OVCAR-4; settings: OVCAR-4, ovarian, TAXOL resistant cell line; cited from earlier work
[8] = system: MDA-MB-435; settings: MDA-MB-435, breast, TAXOL sensitive cell line; cited from earlier work
[9] = system: HOP-92; settings: HOP-92, non-small cell lung carcinoma, TAXOL resistant cell line; cited from earlier work
[10] = system: EKVX; settings: non-small cell lung carcinoma, TAXOL resistant cell line; cited from earlier work
[11] = system: SN12C; settings: renal, TAXOL sensitive cell line; cited from earlier work
[12] = system: SK-MEL-5; settings: SK-MEL-5, melanoma, TAXOL sensitive cell line; cited from earlier work
[13] = system: ACHN; settings: renal, TAXOL resistant cell line; cited from earlier work
[14] = system: NCI-H522; settings: NCI-H522, non-small cell lung carcinoma, TAXOL sensitive cell line; cited from earlier work
[15] = system: TAXOL resistant cancer cell lines; assay: TAXOL growth inhibition (GI50), mean of TAXOL resistant cell lines; type: cell-based, human; settings: mean of the nine TAXOL resistant cell lines of Table B
Description: as §1

[16] = system: MCF-7; settings: MCF-7, breast, TAXOL sensitive cell line; cited from earlier work
[17] = system: MALME-3M; settings: melanoma, TAXOL resistant cell line; cited from earlier work
[18] = system: T-47D; settings: breast, TAXOL resistant cell line; cited from earlier work
[19] = system: NCI-H460; settings: NCI-H460, non-small cell lung carcinoma, TAXOL sensitive cell line; cited from earlier work
[20] = system: HT-29; settings: HT-29, colon, TAXOL sensitive cell line; cited from earlier work
[21] = system: tumor; settings: animal models; cited from earlier work

GI50 [1]: 3.16 nM
Log GI 50 for TAXOL (Mean) [15]: −6.5
SMILES: CC(=O)O[C@H]1C(=O)[C@@]2(C)[C@H]([C@H](OC(=O)c3ccccc3)[C@]3(O)C[C@H](OC(=O)[C@H](O)[C@@H](NC(=O)c4ccccc4)c4ccccc4)C(C)=C1C3(C)C)[C@]1(OC(C)=O)CO[C@@H]1C[C@@H]2O [TAXOL]
Log GI 50 for TAXOL [2]: −7.1
Log GI 50 for TAXOL [3]: −6.7
Log GI 50 for TAXOL [4]: −5.5
Log GI 50 for TAXOL [5]: −8.3
Log GI 50 for TAXOL [6]: −8.5
Log GI 50 for TAXOL [7]: −6.3
Log GI 50 for TAXOL [8]: −8.6
Log GI 50 for TAXOL [9]: −7.2
Log GI 50 for TAXOL [10]: −6.6
Log GI 50 for TAXOL [11]: −8.5
Log GI 50 for TAXOL [12]: −8.4
Log GI 50 for TAXOL [13]: −5.8
Log GI 50 for TAXOL [14]: −8.5
Log GI 50 for TAXOL [16]: −8.5
Log GI 50 for TAXOL [17]: −6.8
Log GI 50 for TAXOL [18]: −6.9
Log GI 50 for TAXOL [19]: −8.5
Log GI 50 for TAXOL [20]: −8.6

SMILES: CC(=O)O[C@@]12CO[C@@H]1C[C@H](O)[C@@]1(C)C(=O)[C@H](O)C3=C(C)[C@@H](OC(=O)[C@H](O)[C@@H](NC(=O)OC(C)(C)C)c4ccccc4)C[C@@](O)([C@@H](OC(=O)c4ccccc4)[C@H]21)C3(C)C [Taxotere, docetaxel]
anti-tumor activity [21]: good anti-tumor activity
